Test results taken from US20240316046A1, “ERK1/2 INHIBITOR COMBINATION THERAPY” (Asana Biosciences, LLC, priority 2021, published 2024).

What was measured:
[1] = system: encorafenib refractory-BRAF^V600E RKO and WiDr CDX models; assay: In-vivo assay, tumor growth in xenograft (CDX) models; design: species or system Female Balb/c nude mice; conditions: compound 1 combined with encorafenib, oral, FIG. 2A, 2B
Description: The vehicle/control article, 0.5% Methyl Cellulose & 0.1% Tween 80 or 100 mM acetic acid in deionized water with pH adjustment to 4.8-5.0, was prepared and stored under ambient conditions throughout the study period.
The test article compound 1 was freshly prepared in vehicle of 0.5% Methyl Cellulose & 0.1% Tween 80 weekly and stored under ambient conditions. The combination agent, encorafenib, was freshly prepared in vehicle of 0.5% CMC and 0.5% Tween 80 weekly and stored at 2-8° C.
Female Balb/c nude mice were purchased from the Beijing Vital River Laboratory Animal Technology Co., Ltd. Mice were hosted at special pathogen-free (SPF) environment of vivarium facility and acclimated to their new environment for at least 3 days prior to initiation of any experiments. Mice were between 6-8 weeks of age at the time of implantation.
RKO is a human CRC tumor cell line that harbors a BRAF^V600E mutation. The RKO cell line was purchased from the American Type Culture Collection (ATCC® CRL-2577™). RKO cells were cultured in medium containing EMEM plus 10% Fetal Bovine Serum (FBS) supplemented with non-essential amino acids at 37° C. in an atmosphere of 5% CO2 in air. RKO cells in 200 μL cell suspensions containing 2×10^6 cells mixed with 50% Matrigel were implanted into mice subcutaneously. […]

[2] = system: cell lines harboring a BRAF^V600E mutation (RKO, HT-29, WiDr, MDST8, LIM2405 cells); assay: In-vitro 3D cell viability assay (CellTiter-Glo 3D), dilution matrix of compound 1 versus encorafenib, BLISS model; assay type: cell-based, human; conditions: compound 1 combined with encorafenib, 5 days post-treatment, FIG. 1A-1E
Description: Cells were plated at a density of 1,000 (RKO, HT-29, WiDr, MDST8) or 5,000 (LIM2405) cells per well in a 96-well plate (Corning #3903). Cells were allowed to adhere overnight, and compound was added in a matrix format using a HP Tecan D300e digital dispenser (Switzerland). Compound 1 was added in a 1:3 dilution series (8-point dose response) from bottom to top of plate (rows B-H) and encorafenib was added in a 1:3 dilution series ([…] dose response) from right to left (columns 2-11). Final DMSO concentration was normalized across the plate. Cell viability was assessed 5-days post-treatment using Promega CellTiter-Glo 3D Cell Viability Assay reagent (#G9683) according to manufacturer's protocol.
RKO cells (FIG. 1A), HT-29 cells (FIG. 1B), WiDr cells (FIG. 1C), MDST8 cells (FIG. 1D), and LIM2405 (FIG. 1E) were treated with a dilution matrix of compound 1 versus encorafenib in 3D cell viability assays. Cell viability, as expressed as a percentage of viable cells relative to vehicle treated control, is shown in the matrix.

[3] = system: RAS/MAPK pathway (P-RSK, P-ERK) in BRAF V600E mutant CRC cell lines RKO and HT-29; assay: Western blot of phosphorylation of RSK (P-RSK) and ERK (P-ERK), encorafenib in combination with MEK and ERK inhibitors; assay type: cell-based, human; conditions: plus BRAF inhibitor encorafenib; incubation up to 72 hours; Compound 1 at one-tenth the concentration used for the MEK and other ERK inhibitors; FIG. 3A-3D
Description: Treatment of two BRAF V600E mutant CRC cell lines, RKO and HT-29, with encorafenib in combination with the MEK inhibitor binimetinib, the ERK inhibitor Compound 1, the ERK inhibitor LY3214996, and the ERK inhibitor ravoxertinib. The Western blot gels depict phosphorylation of RSK (P-RSK) and ERK (P-ERK). Higher levels of phosphorylation are depicted by higher (i.e., darker) band intensity. Total GAPDH protein (GAPDH) serves as a loading control. ERK signaling activity is represented by the phosphorylation state of RSK (P-RSK), which is a downstream target of ERK. The column values indicate the duration of compound incubation of up to 72 hours. FIG. 3A-FIG. 3D.

Row | Compound | combination benefit in vivo (tumor growth curves) [1] | combination benefit in vitro (cell viability, BLISS model) [2] | RAS/MAPK pathway feedback reactivation (P-RSK, P-ERK) [3]
1 | Cc1cnc(NC2CCOCC2)nc1-n1cnc(C(=O)N[C@H](CN)c2cc(F)cc(Cl)c2)c1 [Compound 1, (S)-N-(2-amino-1-(3-chloro-5-fluorophenyl)ethyl)-1-(5-methyl-2-((tetrahydro-2H-pyran-4-yl)amino)pyrimidin-4-yl)-1H-imidazole-4-carboxamide] | combination benefit | combination benefit | blocked the RAS/MAPK pathway feedback reactivation
2 | COC(=O)N[C@@H](C)CNc1nccc(-c2cn(C(C)C)nc2-c2cc(Cl)cc(NS(C)(=O)=O)c2F)n1 [encorafenib, Encorafenib, reference compound] | combination benefit | combination benefit | –
